Measurements taken from PMC6010057, “Synthesis, carbonic anhydrase I and II inhibition studies of the 1,3,5-trisubstituted-pyrazolines” (Journal of Enzyme Inhibition and Medicinal Chemistry, 2016).

Tests used:
hCA II = hCA II (Homo sapiens, UniProt P00918); test: biochemical
hCA I = hCA I (Homo sapiens, UniProt P00915); test: biochemical
hCA I, sequence (P00915 whole entry): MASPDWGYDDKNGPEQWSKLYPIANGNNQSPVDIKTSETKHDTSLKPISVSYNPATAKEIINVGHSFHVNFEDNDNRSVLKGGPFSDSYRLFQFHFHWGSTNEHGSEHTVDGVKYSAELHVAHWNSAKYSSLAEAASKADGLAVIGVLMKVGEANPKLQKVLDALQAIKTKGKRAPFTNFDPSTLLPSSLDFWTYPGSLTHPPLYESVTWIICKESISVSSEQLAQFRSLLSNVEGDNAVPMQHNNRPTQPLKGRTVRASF

| SMILES | IC50 (hCA II) [µM] | Ki (hCA II) [µM] | IC50 (hCA I) [µM] | Ki (hCA I) [µM] |
| --- | --- | --- | --- | --- |
| NS(=O)(=O)c1ccc(N2N=C(c3ccccc3)CC2c2ccccc2)cc1 (stereo not shown) [Compound 9, 4-(3,5-Diphenyl-4,5-dihydro-1H-pyrazol-1-yl)benzenesulfonamide] | 0.586 | 0.625 ± 0.168 | 0.555 | 0.506 ± 0.133 |
| NS(=O)(=O)c1ccc(N2N=C(c3ccc(Cl)cc3)CC2c2ccccc2)cc1 (stereo not shown) [Compound 12, 4-(3-(4-Chlorophenyl)-5-phenyl-4,5-dihydro-1H-pyrazol-1-yl)benzenesulfonamide] | 0.559 | 0.521 ± 0.132 | 0.403 | 0.378 ± 0.114 |
| NS(=O)(=O)c1ccc(N2N=C(c3ccc(F)cc3)CC2c2ccccc2)cc1 (stereo not shown) [Compound 13, 4-(3-(4-Fluorophenyl)-5-phenyl-4,5-dihydro-1H-pyrazol-1-yl)benzenesulfonamide] | 0.536 | 0.587 ± 0.188 | 0.493 | 0.462 ± 0.134 |

Further molecules by falling IC50 (hCA II), results first:

| IC50 (hCA II) [µM] | Ki (hCA II) [µM] | IC50 (hCA I) [µM] | Ki (hCA I) [µM] | SMILES |
| --- | --- | --- | --- | --- |
| 0.534 | 0.43 ± 0.0873 | 0.416 | 0.326 ± 0.0294 | NS(=O)(=O)c1ccc(N2N=C(c3ccc([N+](=O)[O-])cc3)CC2c2ccccc2)cc1 (stereo not shown) [Compound 15, 4-(3-(4-Nitrophenyl)-5-phenyl-4,5-dihydro-1H-pyrazol-1-yl)benzenesulfonamide] |
| 0.486 | 0.469 ± 0.063 | 0.484 | 0.533 ± 0.188 | COc1ccc(C2=NN(c3ccc(S(N)(=O)=O)cc3)C(c3ccccc3)C2)cc1 (stereo not shown) [Compound 11, 4-(3-(4-Methoxyphenyl)-5-phenyl-4,5-dihydro-1H-pyrazol-1-yl)benzenesulfonamide] |
| 0.471 | 0.412 ± 0.115 | 0.405 | 0.317 ± 0.0096 | NS(=O)(=O)c1ccc(N2N=C(c3ccc(Br)cc3)CC2c2ccccc2)cc1 (stereo not shown) [Compound 14, 4-(3-(4-Bromophenyl)-5-phenyl-4,5-dihydro-1H-pyrazol-1-yl)benzenesulfonamide] |
| 0.459 | 0.592 ± 0.135 | 0.528 | 0.472 ± 0.0575 | NS(=O)(=O)c1ccc(N2N=C(c3ccc(O)cc3)CC2c2ccccc2)cc1 (stereo not shown) [Compound 16, 4-(3-(4-Hydroxyphenyl)-5-phenyl-4,5-dihydro-1H-pyrazol-1-yl)benzenesulfonamide] |
